{"source": "a melting point compilation (Tetko et al.; mined from patent text by program, amines drawn as free bases though some values may be those of a salt)"}
{"units": {"melting point": "°C"}}
{"smiles": "c1ccc2c(c1)CC(CN1CCC(c3c[nH]c4ccccc34)CC1)C2", "melting point": "146 to 147"}
{"smiles": "CCOC(=O)c1c(C(C)C)nn(-c2ccccc2)c1-c1ccc(F)cc1", "melting point": "92 to 93"}
{"smiles": "Oc1ccc(-c2ncc3ncc(-c4ccc(S)cc4)cc3n2)cc1", "melting point": "222 to 223"}
{"smiles": "COc1cc(OC)c(-c2cccn2C)cc1C=CC(=O)c1ccc(S(=O)(=O)Nc2cc(C)on2)cc1", "melting point": "113 to 115"}
{"smiles": "O=C(NCc1ccc(F)cc1)c1ccc2nc(N[C@@H]3CCc4ccccc43)ccc2c1", "melting point": 175}
{"smiles": "O=C(O)c1c[nH]c2cc(Cl)c([N+](=O)[O-])cc2c1=O", "melting point": "294 to 297"}
{"smiles": "CCCCCCCCCCOC(=O)C1CCC(=O)N1", "note": "(stereo not given)", "melting point": "34 to 35"}
{"smiles": "O=c1oc(Nc2ccc(Oc3ccccc3)cc2)nc2sccc12", "melting point": "206 to 210"}
{"smiles": "COC(=O)c1c(S(=O)(=O)NC(=O)Nc2nc(OC)cc(OC)n2)ccn1C", "melting point": "182 to 186"}
{"smiles": "CCOP(=O)(Cc1ccc(NC(=O)c2sc(SC)c3c2CCc2nc(C)oc2-3)cc1)OCC", "melting point": "197 to 198"}
{"smiles": "O=C(CC(O)=S)c1ccccc1", "melting point": "103 to 105"}
{"smiles": "CC(C)(C)OC(=O)N1CCC(C(=O)NCCC(=O)OCc2ccccc2)C1", "note": "(stereo not given)", "melting point": "83 to 84"}
{"smiles": "N#Cc1nn(-c2c(Cl)cc(C(F)(F)F)cc2Cl)cc1C=C(Cl)Cl", "melting point": "99 to 101"}
{"smiles": "Cc1cc2c(c3ccc(=O)[nH]c13)OC(CNC(=O)CCNC(=O)OCc1ccccc1)C2", "note": "(stereo not given)", "melting point": "233 to 234"}
{"smiles": "O=C1COc2cc(OCc3c(F)cccc3F)ccc21", "melting point": "134 to 138"}
{"smiles": "Cc1nc2c(C)cccn2c1C1=NNC(=O)CO1", "melting point": "310 to 313"}
{"smiles": "N#Cc1ccc(CN2CCNC2=O)cc1", "melting point": "127 to 133"}
{"smiles": "CS(=O)(=O)c1ccc(-c2cnn(CC(F)(F)F)c(=O)c2SCc2ccccc2)cc1", "melting point": "108 to 111"}
{"smiles": "O=C(O)c1ncn2c(C(F)F)cc(-c3ccc(C(F)(F)F)cc3)nc12", "melting point": 238}
{"smiles": "CC1(C)CON(Cc2ccc(NC(=O)Cc3ccccc3C(=O)O)cc2)C1=O", "melting point": "164 to 166"}
{"smiles": "O=C(c1ccc(OCc2ccccc2)cc1O)c1ccc(OCc2ccccc2)cc1O", "melting point": "140 to 142"}
{"smiles": "CC(C)(N)[C@@H]1CCN(c2cc3c(c(N)c2F)c(=O)c(C(=O)O)cn3C2CC2)C1", "melting point": "> 300"}
{"smiles": "CN(C)c1ccc(C(=C2SCCCS2)c2ccccc2)cc1", "melting point": "172 to 174"}
{"smiles": "O=C1N(Cc2cc3cccc(F)c3o2)c2ccccc2C12COc1cc3c(cc12)CCO3", "note": "(stereo not given)", "melting point": "192 to 193"}
{"smiles": "COC(=O)c1ccc(CO)cc1SCc1ccccc1", "melting point": "89.5 to 92"}
{"smiles": "CCOCOC1(C(=O)CO)C(C)CC2C3CC(C)C4=CC(=O)C=CC4(C)C3C(O)CC21C", "note": "(stereo not given)", "melting point": "100 to 102"}
{"smiles": "Nc1nc2c(ncn2C2C=CC(CO)C2)c(=S)[nH]1", "note": "(stereo not given)", "melting point": "> 250"}
{"smiles": "CC(=Cc1ccc(-c2ccc(Cl)cc2)cc1)[N+](=O)[O-]", "melting point": 114}
{"smiles": "CSc1cc(CCC(=O)OC(C)(C)C)cc(-c2nc(=O)c3ccccc3s2)n1", "melting point": 126}
{"smiles": "CCOC(=O)c1cc(-c2ccc(OCc3cccnc3)cc2O[C@H](CCC(=O)O)c2ccccc2C)n[nH]1", "melting point": "108 to 110"}
{"smiles": "CS(=O)(=O)Oc1ccc2c(c1)[nH]c(=O)c1c3ccc(OS(C)(=O)=O)cc3oc21", "melting point": "> 300"}
{"smiles": "O=S(=O)(Nc1ccc(Cl)cc1Oc1ccc(Cl)cc1Cl)C(F)(F)F", "melting point": "97 to 98"}
{"smiles": "Clc1ccccc1N=Cc1ccc(-c2nc3ccccn3n2)cc1", "melting point": "135 to 136"}
{"smiles": "CCC(=O)c1cccc(C(=O)Nc2ccccn2)c1", "melting point": "128 to 129"}
{"smiles": "CCN(C(=O)c1cnc(N2CC(C)NC2=O)nc1N)c1cccc(C(F)(F)F)c1", "note": "(stereo not given)", "melting point": "207 to 208"}
{"smiles": "Cn1c(=O)c(C#N)c(N2CCN(C(=O)c3cccs3)CC2)c2cc(F)ccc21", "melting point": 286}
{"smiles": "Cc1ccc(CC(N)=O)cn1", "melting point": "175 to 177"}
{"smiles": "O=C1CCCC1Oc1cccc2onc(OCC3CCN(CC4(O)CCOCC4)CC3)c12", "note": "(stereo not given)", "melting point": 133}
{"smiles": "O=c1c2cc(O)ccc2nc(C(S)c2ncnc3[nH]cnc23)n1-c1ccccc1Cl", "note": "(stereo not given)", "melting point": "186 to 214"}
{"smiles": "CS(=O)(=O)c1ccc(-n2nc(C(F)(F)F)cc2-c2ccc(-c3ccco3)cc2F)cc1F", "melting point": "156 to 160"}
{"smiles": "CC1CCc2nc(-c3ccccc3)[nH]c(=O)c2C1", "note": "(stereo not given)", "melting point": 237}
{"smiles": "CCCN(CCC)C(=O)Cn1c(-c2ccc([N+](=O)[O-])cc2)nc2cccnc21", "melting point": "205 to 208"}
{"smiles": "COC(=O)C=C1C(=O)N(c2ccccc2)C(=O)N1Cc1ccccc1", "melting point": 130}
{"smiles": "FC(F)(F)c1cc(CO[C@@H]2CCCN(Cc3nnn[nH]3)[C@@H]2c2ccccc2)cc(C(F)(F)F)c1", "note": "(relative stereo)", "melting point": "114 to 115"}
{"smiles": "C=CC12CCc3cc(NS(=O)(=O)O)ccc3C1CCC1(C)C(O)CCC12", "note": "(stereo not given)", "melting point": "82 to 86"}
{"smiles": "CC(=O)N1CC=C(C2=C(C#N)C(c3cccc4nonc34)c3c[nH]nc3N2)CC1", "note": "(stereo not given)", "melting point": 237}
{"smiles": "CCOC(=O)Cn1c(=O)c(=O)[nH]c2cc(C(F)(F)F)c(-n3c(C)ccc3C)cc21", "melting point": "262 to 263"}
{"smiles": "CN1Cc2c(C(=O)OC(C)(C)C)ncn2-c2cccc(Br)c2C1=O", "melting point": "207 to 208"}
{"smiles": "CCOC(=O)C1=C(C)NC(COCCN)=C(C(=O)OC)C1c1cccc(Cl)c1Cl", "note": "(stereo not given)", "melting point": "131 to 132"}
{"smiles": "CCOC(=O)C1=CC(=O)CC(c2ccc(Cl)cc2)N1", "note": "(stereo not given)", "melting point": "93 to 94"}
{"smiles": "CC(=O)OC1CC2C3CCC(C(C)CCCC(C)C)C3(C)CCC2C2(C)CC(F)C(O)CC12", "note": "(stereo not given)", "melting point": "148 to 150"}
{"smiles": "COc1ccc(-c2nc(C(=O)NCCc3ccccn3)sc2-c2ccc(OC)cc2)cc1", "melting point": "130 to 132"}
{"smiles": "Cc1noc(-c2cccc(I)c2)n1", "melting point": "102 to 103"}
{"smiles": "O=C(NCCc1c[nH]c2ccccc12)OCC1CC1", "melting point": "88 to 90"}
{"smiles": "CN1CCN(C(=O)Nc2ccccc2NC(=O)c2cc(C(C)(C)C)c(O)c(C(C)(C)C)c2)CC1", "melting point": "160 to 161"}
{"smiles": "CC(C)Oc1cc(O)c2c(=O)cc(Sc3ccc(O)cc3)oc2c1", "melting point": "205 to 207"}
{"smiles": "C#CCN1C(=O)COc2cc(F)c(N)cc21", "melting point": "132 to 134"}
{"smiles": "CC(C)(C)OC(=O)Nc1cc(COC2CCCCO2)c(-c2ccc(F)cc2)cc1N", "note": "(stereo not given)", "melting point": "139 to 142"}
{"smiles": "COCCc1nc2c(N)nc3ccccc3c2n1CC1(O)CCC1", "melting point": "169 to 171"}
{"smiles": "COC(=O)N1Cc2ccccc2C(c2ccccc2Cl)c2ccccc21", "note": "(stereo not given)", "melting point": "159 to 161"}
{"smiles": "CCOC(=O)c1cc(NCc2c(C)cccc2CC)c2nc(COC)n(C)c2c1", "melting point": "106 to 107"}
{"smiles": "CCOC(=O)c1c(C=O)c2ccc3sc4ccccc4c3c2n1C", "melting point": "145 to 147"}
{"smiles": "COc1cc(CC(=O)NCCCc2ccc(C)c(C)c2)ccc1OCCO", "melting point": "119 to 120"}
{"smiles": "O=C(C=CCN1CCC(O)(c2ccc(Cl)cc2)CC1)c1ccc(F)cc1", "melting point": "97 to 97.5"}
{"smiles": "COc1ccc(CNC(=O)c2nc3scc(COCc4ccc(C(=O)O)cc4)c3c(=O)[nH]2)cc1", "melting point": "271 to 273"}
{"smiles": "COc1ccccc1NC(=O)Nc1nc(Nc2ccc3ccccc3c2)nc(N(CCC(=O)O)Cc2ccc(Cl)c(Cl)c2)n1", "melting point": "115 to 120"}
{"smiles": "COc1cccc(OC)c1CN1C(=O)C2CCCN2c2ccccc21", "note": "(stereo not given)", "melting point": "128 to 130"}
{"smiles": "CC(O)[C@@H](Cc1ccccc1)NC(=O)OC(C)(C)C", "note": "(stereo not given in full)", "melting point": 127}
{"smiles": "CC(=O)c1ccc2c(c1)CCCN2C(=O)OC(C)(C)C", "melting point": "80 to 82"}
{"smiles": "COc1cc(C(=O)c2cccnc2)ccc1O", "melting point": "150 to 151"}
